Details: 101.33 kPa, Crystal, Vacuum adiabatic calorimetry

O=C([O-])[O-].[Zn+2] [zinc(II) carbonate]
Details	molar entropy [J/K/mol]
5 K	0.00258
10 K	0.02006
15 K	0.07123
20 K	0.1881
25 K	0.41
30 K	0.7694
35 K	1.284
40 K	1.959
45 K	2.788
50 K	3.759
55 K	4.862
60 K	6.081
65 K	7.403
70 K	8.815
75 K	10.3
80 K	11.85
85 K	13.45
90 K	15.1
95 K	16.78
100 K	18.49
105 K	20.21
110 K	21.95
115 K	23.7
120 K	25.45
130 K	28.95
140 K	32.44
150 K	35.9
160 K	39.32
170 K	42.69
180 K	46.02
190 K	49.28
200 K	52.5
210 K	55.65
220 K	58.75
230 K	61.8
240 K	64.79
250 K	67.73
260 K	70.62
270 K	73.48
273.15 K	74.37
280 K	76.29
290 K	79.06
298.15 K	81.28
300 K	81.78
310 K	84.45
320 K	87.09

— the NIST ThermoML archive (doi:10.1016/j.jct.2012.02.028)
